According to EP0066406A1, “Beta-lactam antibiotics” (BEECHAM GROUP PLC, priority 1981, dated 1982):
Like-named read-outs stand apart in the source and are kept apart here.

Experiments:
Assay in all cases: MIC determination (agar/broth)
Assay type in all cases: cell-based
E. coli ESS = settings: Escherichia coli, AGAR
E. coli JT 4 = settings: Escherichia coli, JT4, AGAR
E. coli JT 425 = settings: Escherichia coli, JT425, AGAR
E. coli NCTC 10418 = system: E. coli NCTC 10418
[1] = system: Ps. aeruginosa NCTC 10662; settings: Pseudomonas aeruginosa
Ps. aeruginosa Dalgleish = settings: Pseudomonas aeruginosa; AGAR; Ps. aeruginosa Dalgleish 10^-2
S. marcescens US 32 = settings: Serratia marcescens, US32, AGAR
K. aerogenes A = settings: Klebsiella aerogenes
E. cloacae N1 = settings: Enterobacter cloacae, AGAR
P. mirabilis C 977 = settings: Proteus mirabilis, C977, AGAR
P. mirabilis 889 = settings: Proteus mirabilis, AGAR
P. morganii = settings: Morganella morganii, AGAR
P. rettgeri = settings: Providencia rettgeri, AGAR
B. subtilis = settings: Bacillus subtilis, AGAR
S. aureus Oxford = system: S. aureus Oxford
S. aureus Russell = system: S. aureus Russell
N. catarrhalis 1502 = settings: AGAR
S. faecalis I = settings: Enterococcus faecalis, AGAR
S. pyogenes CN 10 = settings: Streptococcus pyogenes, CN10, AGAR
[2] = Staphylococcus aureus, AGAR, read-out: MIC

With `CCN1CCN(C(=O)NC(C(=O)N[C@@H]2C(=O)N3[C@@H]2SC(C)(C)[C@@H]3C(=O)O)c2csc(N)n2)C(=O)C1=O` (mixture of isomers) [Example 1, 6-[DL-a-(4-Ethyl-2,3-dioxopiperazin-l-carbonylamino)-2-aminothiazol-4-acetamido]penicillanic acid] the MIC (E. coli ESS) was less than 0.02 µg/mL, the MIC (E. coli JT 4) was greater than 100 µg/mL and the MIC (E. coli JT 425) was 25 µg/mL. For the same molecule, the MIC (E. coli NCTC 10418; BROTH) was 1.0 µg/mL, the MIC (E. coli NCTC 10418; Escherichia coli, NCTC10418, AGAR, read-out: MIC) was 1 µg/mL and the MIC ([1]; NCTC10662, AGAR, Ps. aeruginosa NCTC 10662) was 5 µg/mL. For the same molecule, the MIC ([1]; NCTC10662, AGAR, Ps. aeruginosa NCTC 10662 10^-2) was 2.5 µg/mL, the MIC ([1]; NCTC10662, BROTH, Ps. aeruginosa NCTC 10662) was 10 µg/mL and the MIC ([1]; NCTC10662, BROTH, Ps. aeruginosa NCTC 10662 10^-2) was 25 µg/mL. It also gave an MIC (Ps. aeruginosa Dalgleish) greater than 100 µg/mL, an MIC (S. marcescens US 32) of 2.5 µg/mL and an MIC (K. aerogenes A; AGAR) of 10 µg/mL. For the same molecule, the MIC (K. aerogenes A; BROTH) was 25 µg/mL, the MIC (E. cloacae N1) was 0.5 µg/mL and the MIC (P. mirabilis C 977) was 0.2 µg/mL. The MIC (P. mirabilis 889) was greater than 100 µg/mL, the MIC (P. morganii) was 0.5 µg/mL and the MIC (P. rettgeri) was 2.5 µg/mL. It also gave an MIC (B. subtilis) of 2.5 µg/mL, an MIC (S. aureus Oxford; BROTH) of 1.0 µg/mL and an MIC (S. aureus Oxford; [2]) of 1 µg/mL. For the same molecule, the MIC (S. aureus Russell; BROTH) was 100 µg/mL, the MIC (S. aureus Russell; [2]) was 100 µg/mL and the MIC (N. catarrhalis 1502) was less than 0.02 µg/mL. The MIC (S. faecalis I) was 25 µg/mL and the MIC (S. pyogenes CN 10) was 0.1 µg/mL.
